Experimental data as given in patent US20200223826A1, “Glucose-6-Phosphate Dehydrogenase (G6PD)-Modulating Agents And Methods Of Treating G6PD Deficiency” (The Board of Trustees of the Leland Stanford Junior …, priority 2017, published 2020).

Legend:
zebrafish embryos = assay: NADPH levels in lysates of pooled zebrafish embryos; format: in vivo; settings: lysates of pooled AG1-treated embryos
Procedure: Embryos were dechorinated with pronase at 24 hours post fertilization (hpf) and treated with 50 μg/ml of chloroquine and/or AG1 by directly adding the compounds to the well. For ROS measurements, embryos were incubated with compounds for 2 hours, and then the ROS detecting reagent (CM-H2DCFDA) was added at a final concentration of 500 ng/ml to the well for a total treatment time of 5 hours. One embryo was placed to each well of a black, opaque 96-well plate. The florescence was analyzed with excitation/emission at 485/525 nm. After ROS assays, embryos at about 32 hpf were pooled and lysed in buffer containing 50 mM Tris (pH 7.4), 150 mM NaCl, 1 mM EDTA, 0.1% NP-40, and protease inhibitor cocktail, which was followed by three cycles of freeze and thawing in liquid nitrogen. The lysate was centrifuged at 14,000 rpm at 4° C. for 15 minutes. Total protein concentration in the supernatants (total lysate) was determined by Bradford method. 50 μg of total lysate was loaded onto 10% SDS-PAGE gels and the protein level was examined by Western blot using anti-G6PD antibody (Abcam (G6PD: AB87230)). 10 μg of total lysate was used for enzymatic assay. 50 μg of the lysate was used to measure NADPH levels using a NADPH quantification kit (Biovision), according to the manufacturer's instructions.

Canton G6PD = molecular target: T1, Canton G6PD (Homo sapiens, UniProt P11413, R459L); assay: Canton G6PD enzyme activity, diaphorase-coupled assay; format: biochemical
T1 construct: His (pET-28a) (N, cleaved yes); made in house; host or cells: E. coli C43 (DE3)
Procedure: Enzyme activity was measured by monitoring NADPH production, which was coupled with diaphorase converting resazurin to fluorescent resorufin (excitation at 565 nm and emission at 590 nm); fluorescent signal was thus proportional to G6PD activity. Assays were performed at 25° C. and run for 5 minutes in buffer containing 50 mM Tris (pH 7.4), 0.5 mM EDTA, 3.3 mM MgCl2, 1 U/ml diaphorase, 0.1 mM resazurin. 10 ng of recombinant enzymes or 10 μg of cell lysates was used for the assay with 10 μM NADP^+ (Sigma) as cofactor and 100 μM G6P (Sigma) as substrate. Steady-state kinetic parameters were obtained by varying concentrations of NADP^+ (0-10 μM) with a constant concentration of G6P (100 μM) and similarly for G6P (0-100 μM) with a constant concentration of NADP^+ (10 μM) with 10 ng of recombinant enzymes. Data analysis was performed using GraphPad Prism software v.6 (GraphPad Software, La Jolla, Calif. USA). Kinetic parameters were obtained by fitting the data to the Michaelis-Menten equation.
The diaphorase-coupled enzyme assay as described above was used to screen a library of compounds for small molecule activators. The compounds were added to Canton G6PD enzyme reaction mixture at a final concentration of 16.67 μM using Caliper Life Sciences Staccato system with a Twister II robot and a Sciclone ALH3000 (Caliper Life Sciences, Alameda, Calif. USA) integrated with a V&P Scientific pin tool, which was followed by incubation for 3 hours. Addition of G6P then initiated the reaction, which was run for 2.5 minutes. The fluorescent signals were recorded 4 times during the run using Molecular Devices AnalystGT (Molecular Devices, Sunnyvale, Calif. USA). Any compounds showing 30% activation of the enzyme were rescreened in a dose-dependent manner (0-30 μM, duplicate) to identify potential hits.
Based on preliminary results with compound AG1, a variety of compounds of interest were prepared and assessed in G6PD enzyme activation assays, according to the methods described herein.

[1] = molecular target: T2, Canton G6PD in SH-SY5Y cells (Homo sapiens, UniProt P11413, R459L); assay: Stability of Canton G6PD in SH-SY5Y cells; format: cell-based
T2 construct: expressed in transfected cells; host or cells: SH-SY5Y neuroblastoma cells
Procedure: Prior to the cellular-based assays using SH-SH5Y cells, duration of overexpression of WT G6PD and Canton variant was examined by transfecting the cells seeded in a 12-well plate. The genes encoding human WT G6PD and Canton variant were first PCR-amplified, which was then inserted into pcDNA 3.1/myc-His C (ThermoFisher Scientific) using HindIII and XhoI. 0.5 μg of cDNA and 1.5 μg of lipofectamine (Invitrogen) were diluted in 50 μL of Opti-MEM medium respectively and incubated for 5 minutes. The diluted DNA was combined with diluted lipofectamine, which was followed by incubation for 20 minutes prior to the addition to cells.
The transfected cells were collected at different time points (up to 72 hours) and the overexpressed G6PD levels were examined by Western blot. The transfection was carried out in serum-starved cells. Once the duration of expression was confirmed, other cellular-based assays were performed.
(§1) 50,000 cells (SH-SH5Y cells or fibroblast cells) or 100,000 cells (lymphocytes) were seeded in a 12-well plate and incubated overnight. The cells were subjected to serum starvation (50-75%) for 48 hours and treated with 50 μg/ml of cycloheximide at different time points (0-48 hours). The cells were treated with the compound (1 μM) for 48 hours together with cycloheximide. […]

[2] = molecular target: T3, Canton G6PD in lymphocytes carrying the Canton variant (Homo sapiens, UniProt P11413, R459L); assay: Cycloheximide chase assay in lymphocytes; format: cell-based; settings: 1 μM; 24 hours following cycloheximide treatment
T3 construct: host or cells: lymphocytes from a G6PD-deficient subject
Procedure: Lymphocytes derived from a normal subject (HG 00866) and a G6PD-deficient subject carrying Canton variant in G6PD (HG 02367) were purchased from Coriell Institute and cultured in RPMI 1640 supplemented with 15% fetal bovine serum (FBS), 100 U/ml penicillin, and 100 μg/ml streptomycin. An SH-SY5Y neuroblastoma cell line was cultured in Dulbecco's Modification of Eagle's Medium/Ham's F-12 50/50 Mix supplemented with 10% FBS, 100 U/ml penicillin, and 100 μg/ml streptomycin. A G6PD-deficient subject-derived fibroblast cell line carrying Mediterranean variant and normal fibroblast cell line as control were purchased from Coriell Institute (GM 01152) and ThermoFisher Scientific (C0135C), respectively, and cultured in minimum essential medium supplemented with 15% FBS, 100 U/ml penicillin, and 100 μg/ml streptomycin. All the cell lines were maintained at 37° C. in a humidified incubator with an atmosphere of 5% of CO2 and 95% air.
as §1

T1 sequence (P11413 whole entry R459L): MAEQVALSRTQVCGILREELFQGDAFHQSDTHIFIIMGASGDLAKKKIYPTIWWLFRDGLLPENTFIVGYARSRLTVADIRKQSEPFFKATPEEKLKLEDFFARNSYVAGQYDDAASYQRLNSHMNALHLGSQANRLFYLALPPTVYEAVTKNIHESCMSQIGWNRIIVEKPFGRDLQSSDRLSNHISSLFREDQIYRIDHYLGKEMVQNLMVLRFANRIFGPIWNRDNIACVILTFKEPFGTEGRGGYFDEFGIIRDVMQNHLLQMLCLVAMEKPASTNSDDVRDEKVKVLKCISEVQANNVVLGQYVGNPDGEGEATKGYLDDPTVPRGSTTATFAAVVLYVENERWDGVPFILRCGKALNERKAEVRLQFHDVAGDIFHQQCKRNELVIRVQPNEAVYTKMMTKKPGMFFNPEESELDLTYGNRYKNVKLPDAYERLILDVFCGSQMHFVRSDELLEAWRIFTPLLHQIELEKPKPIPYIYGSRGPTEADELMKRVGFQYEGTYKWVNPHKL
T2 sequence (P11413 whole entry R459L): as above
T3 sequence (P11413 2-515 R459L limits assumed): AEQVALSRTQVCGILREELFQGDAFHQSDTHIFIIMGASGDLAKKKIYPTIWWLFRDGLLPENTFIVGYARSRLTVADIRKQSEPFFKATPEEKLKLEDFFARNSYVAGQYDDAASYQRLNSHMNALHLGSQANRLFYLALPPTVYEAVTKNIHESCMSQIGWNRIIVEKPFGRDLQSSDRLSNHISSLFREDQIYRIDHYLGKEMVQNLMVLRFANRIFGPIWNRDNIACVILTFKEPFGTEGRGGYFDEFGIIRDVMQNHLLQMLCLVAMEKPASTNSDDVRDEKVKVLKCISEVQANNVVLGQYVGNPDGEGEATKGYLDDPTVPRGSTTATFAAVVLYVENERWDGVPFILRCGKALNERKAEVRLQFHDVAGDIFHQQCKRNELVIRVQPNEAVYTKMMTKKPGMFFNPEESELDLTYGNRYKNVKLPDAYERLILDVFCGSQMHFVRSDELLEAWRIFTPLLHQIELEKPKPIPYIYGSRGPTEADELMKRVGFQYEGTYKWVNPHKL

SMILES: SCCNCCc1c[nH]c2ccccc12 [AG1, 2-[2-(1H-indol-3-yl)ethylamino]ethanethiol]
- NADPH levels (zebrafish embryos): significant increase
- increase of the activity of Canton G6PD enzyme (Canton G6PD; 100 μM of AG1): 70%
- kcat (turnover number) (Canton G6PD; Canton G6PD in presence of AG1): 296 ± 1 S^−1
- EC50 (Canton G6PD; read-out: EC50 of activation of Canton G6PD): ~3 µM
- stability of Canton G6PD [1]: increased
- level of Canton protein, higher relative to vehicle treatment [2]: 48%
